One may read the IC50 as the concentration needed to halve the response being measured. As a reminder, the Ki is the equilibrium dissociation constant of an inhibitor or competing ligand from its target.

Results on 18 compounds are retold here after publication PMC6274251, “Design, Synthesis and Biological Evaluation of Stilbene Derivatives as Novel Inhibitors of Protein Tyrosine Phosphatase 1B” (Molecules, 2016).

The target of one experiment is T1, GST-PTP1B (Homo sapiens, UniProt P18031).
T1 sequence (P18031 1-435): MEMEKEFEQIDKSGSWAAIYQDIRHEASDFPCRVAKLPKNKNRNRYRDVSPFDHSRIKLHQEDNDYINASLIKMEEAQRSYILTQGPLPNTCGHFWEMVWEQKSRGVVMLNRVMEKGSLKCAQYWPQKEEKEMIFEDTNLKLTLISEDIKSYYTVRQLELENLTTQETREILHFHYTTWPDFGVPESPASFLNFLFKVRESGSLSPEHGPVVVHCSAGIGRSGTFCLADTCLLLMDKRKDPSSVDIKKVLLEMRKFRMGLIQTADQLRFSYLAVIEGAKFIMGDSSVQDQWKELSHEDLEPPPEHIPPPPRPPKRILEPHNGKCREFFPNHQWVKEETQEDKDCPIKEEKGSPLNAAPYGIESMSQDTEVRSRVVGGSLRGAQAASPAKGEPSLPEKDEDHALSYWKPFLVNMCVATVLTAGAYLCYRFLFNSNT
As to the kind of experiment: Colorimetric pNPP assay of inhibition against PTP1B.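 On all read-outs here: colorimetric inhibition readout run in 96-well plates, with PTP1B and TCPTP both tested in the same assay format.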 The format is biochemical. The note with it: for IC50: means ± SD of three replications, pNPP substrate, pH 6.5, 30 °C; for TCPTP/PTP1B, the ratio of IC50 of TCPTP and PTP1B: selectivity over TCPTP.

For a further experiment, the target named is T2, GST-TCPTP (Homo sapiens, UniProt P17706).
T2 sequence (P17706 1-415): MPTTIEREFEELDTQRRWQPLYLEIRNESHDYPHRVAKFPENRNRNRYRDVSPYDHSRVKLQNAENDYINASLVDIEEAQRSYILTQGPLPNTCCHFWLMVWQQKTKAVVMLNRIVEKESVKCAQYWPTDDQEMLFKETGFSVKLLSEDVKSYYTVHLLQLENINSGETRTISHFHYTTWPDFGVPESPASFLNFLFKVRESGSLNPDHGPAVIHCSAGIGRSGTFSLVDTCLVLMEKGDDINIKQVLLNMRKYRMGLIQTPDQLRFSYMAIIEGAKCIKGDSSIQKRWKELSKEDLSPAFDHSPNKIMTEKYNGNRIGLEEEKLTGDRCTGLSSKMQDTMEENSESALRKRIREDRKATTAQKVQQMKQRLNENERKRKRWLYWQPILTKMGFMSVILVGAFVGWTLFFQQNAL
The experiment in a line: Colorimetric pNPP assay of inhibition against TCPTP.

In the next experiment the target is T3, PTP1B (Homo sapiens, UniProt P18031).
T3 sequence (P18031 1-435): T1 sequence (P18031 1-435)
The experiment in a line: PTP1B enzyme kinetic study (Michaelis-Menten, Lineweaver-Burk plot). The class given is biochemical.

Setting [1] is: read-out: IC50 against PTP1B (Table 1).

SMILES strings stand for the structures. Entries after “also recorded” stand apart in the source; their conditions may differ. Like-named read-outs stand apart in the source and are kept apart here.

Method for GST-PTP1B: (§1) A colorimetric assay to measure inhibition against PTP1B and TCPTP was performed in 96-well plates. […] Briefly, the tested compounds were solubilized in DMSO and serially diluted into concentrations for the inhibitory test.
Method for GST-TCPTP: as §1

On to `COc1ccc(-c2cc(COc3ccc(/C=C/c4cccc(C(=O)O)c4)cc3)no2)cc1` [Compound 27, (E)-3-(4-((5-(4-Methoxyphenyl)isoxazol-3-yl)methoxy)styryl)benzoic acid], for which the IC50 is 2.23 ± 0.51 µM at GST-PTP1B (read-out: IC50 PTP1B (Table 2)) and 8.02 ± 0.99 µM on GST-TCPTP. At GST-PTP1B, the “TCPTP/PTP1B, the ratio of IC50 of TCPTP and PTP1B” value (“TCPTP/PTP1B, the ratio” for short) was determined as 3.6.

Consider `O=C(O)c1cccc(/C=C/c2ccc(OCc3cc(-c4ccccc4)on3)cc2)c1` [Compound 18, (E)-3-(4-((5-Phenylisoxazol-3-yl)methoxy)styryl)benzoic acid], for which the IC50 at GST-PTP1B (setting [1]) was 6.33 ± 1.02 µM; against GST-TCPTP it was 9.58 ± 0.33 µM. In addition, the “TCPTP/PTP1B, the ratio” value at GST-PTP1B is reported as 1.5.

On to `Cc1cccc(-c2cc(COc3ccc(/C=C/c4cccc(C(=O)O)c4)cc3)no2)c1` [Compound 24, (E)-3-(4-((5-(m-Tolyl)isoxazol-3-yl)methoxy)styryl)benzoic acid], for which the IC50 at GST-PTP1B (read-out: IC50 PTP1B (Table 2)) came to 3.68 ± 1.12 µM; on GST-TCPTP, 18.9 ± 1.18 µM. At GST-PTP1B, the “TCPTP/PTP1B, the ratio” value came out at 5.1.

On to `Cc1ccc(-c2cc(COc3ccc(/C=C/c4cccc(C(=O)O)c4)cc3)no2)cc1` [Compound 26, (E)-3-(4-((5-(p-Tolyl)isoxazol-3-yl)methoxy)styryl)benzoic acid], for which the IC50 at GST-PTP1B (read-out: IC50 PTP1B (Table 2)) was 3.56 ± 0.28 µM; against GST-TCPTP it was 7.67 ± 0.35 µM. For the same compound, the “TCPTP/PTP1B, the ratio” value on GST-PTP1B is given as 2.2.

For `O=C(O)c1cccc(/C=C/c2ccc(OCc3cnoc3-c3ccccc3)cc2)c1` [Compound 16, (E)-3-(4-((5-Phenylisoxazol-4-yl)methoxy)styryl)benzoic acid], at GST-PTP1B (setting [1]), the IC50 was 16.2 ± 4.52 µM.

Consider `O=C(O)c1cccc(/C=C/c2ccc(OCc3cc(-c4ccc(Cl)c(Cl)c4)on3)cc2)c1` [Compound 29, (E)-3-(4-((5-(3,4-Dichlorophenyl)isoxazol-3-yl)methoxy)styryl)benzoic acid], for which the IC50 on GST-PTP1B (read-out: IC50 PTP1B (Table 2)) worked out at 0.91 ± 0.33 µM; at GST-TCPTP, 3.78 ± 0.22 µM. Moreover, the “TCPTP/PTP1B, the ratio” value at GST-PTP1B was found to be 4.2. For the same compound, the Ki at PTP1B (30 nM PTP1B, pNPP up to 80 mM, pH 6.5, read-out: inhibitory constant Ki) was found to be 0.78 µM. The “mode of inhibition of PTP1B” value on PTP1B (Vmax constant, Km increased with compound concentration) is reported as “competitive PTP1B inhibitor; also recorded: competitive inhibition”.

In the case of `Cc1onc(-c2ccccc2)c1COc1ccc(/C=C/c2cccc(C(=O)O)c2)cc1` [Compound 17, (E)-3-(4-((5-Methyl-3-phenylisoxazol-4-yl)methoxy)styryl)benzoic acid], on GST-PTP1B (setting [1]), the half-inhibitory concentration (IC50) was determined as 15.7 ± 2.15 µM.

Regarding `O=C(O)c1cccc(/C=C/c2ccc(OCc3cc(-c4cccc(Br)c4)on3)cc2)c1` [Compound 23, (E)-3-(4-((5-(3-Bromophenyl)isoxazol-3-yl)methoxy)styryl)benzoic acid], the 50% inhibitory concentration (IC50) on GST-PTP1B (read-out: IC50 PTP1B (Table 2)) was 9.85 ± 2.04 µM; against GST-TCPTP, > 40 µM.

In the case of `O=C(O)c1cccc(/C=C/c2ccc(OCc3cc(-c4ccccc4Cl)on3)cc2)c1` [Compound 19, (E)-3-(4-((5-(2-Chlorophenyl)isoxazol-3-yl)methoxy)styryl)benzoic acid], the half-inhibitory concentration (IC50) on GST-PTP1B (read-out: IC50 PTP1B (Table 2)) came out at 1.75 ± 0.82 µM; at GST-TCPTP, 36.2 ± 3.82 µM. In addition, at GST-PTP1B, the “TCPTP/PTP1B, the ratio” value came out at 20.7.

Take `O=C(O)c1cccc(/C=C/c2ccc(OCc3cc(-c4cccc(Cl)c4)on3)cc2)c1` [Compound 21, (E)-3-(4-((5-(3-Chlorophenyl)isoxazol-3-yl)methoxy)styryl)benzoic acid]: the 50% inhibitory concentration (IC50) on GST-PTP1B (read-out: IC50 PTP1B (Table 2)) stood at 5.37 ± 1.53 µM; against GST-TCPTP, 7.58 ± 1.32 µM. Also, the “TCPTP/PTP1B, the ratio” value on GST-PTP1B is recorded as 1.4.

As for `O=C(O)c1cccc(/C=C/c2ccc(OCc3cc(-c4cccc(F)c4)on3)cc2)c1` [Compound 22, (E)-3-(4-((5-(3-Fluorophenyl)isoxazol-3-yl)methoxy)styryl)benzoic acid], the IC50 at GST-PTP1B (read-out: IC50 PTP1B (Table 2)) is > 20 µM; against GST-TCPTP, > 40 µM.

As for `COC(=O)c1cccc(/C=C/c2ccc(OCc3cc(-c4ccccc4)on3)cc2)c1` [Compound 18d], the IC50 at GST-PTP1B (setting [1]) was 23.7 ± 3.62 µM.

As for `C[C@H](CCC(=O)O)[C@H]1CC[C@H]2[C@@H]3CC[C@@H]4C[C@H](O)CC[C@]4(C)[C@H]3CC[C@]12C` [Lithocholic acid, lithocholic acid, reference compound], the IC50 at GST-PTP1B (read-out: IC50 PTP1B (Table 2)) was 12.5 ± 2.51 µM; against GST-TCPTP, 20.9 ± 3.66 µM. Also, the “TCPTP/PTP1B, the ratio” value at GST-PTP1B is 1.7.

In the case of `O=C(O)c1cccc(/C=C/c2ccc(OCc3cc(-c4ccc(F)cc4)on3)cc2)c1` [Compound 28, (E)-3-(4-((5-(4-Fluorophenyl)isoxazol-3-yl)methoxy)styryl)benzoic acid], the IC50 worked out at 3.34 ± 0.81 µM at GST-PTP1B (read-out: IC50 PTP1B (Table 2)) and 5.19 ± 0.31 µM at GST-TCPTP. For the same compound, the “TCPTP/PTP1B, the ratio” value on GST-PTP1B is 1.6.

Take `O=C(O)c1cccc(/C=C/c2ccc(OCc3cc(-c4cccc([N+](=O)[O-])c4)on3)cc2)c1` [Compound 25, (E)-3-(4-((5-(3-Nitrophenyl)isoxazol-3-yl)methoxy)styryl)benzoic acid]: the IC50 on GST-PTP1B (read-out: IC50 PTP1B (Table 2)) was found to be 2.05 ± 0.54 µM; on GST-TCPTP, 13.2 ± 1.7 µM. The “PTP1B inhibitory activity, fold higher than compound 18” value on GST-PTP1B (relative to compound 18) turned out to be 3 fold. The “TCPTP/PTP1B, the ratio” value at GST-PTP1B was 6.5.

For the compound `O=C(O)c1cccc(/C=C/c2ccc(OCc3conc3-c3ccccc3)cc2)c1` [Compound 15, (E)-3-(4-((3-Phenylisoxazol-4-yl)methoxy)styryl)benzoic Acid], the half-inhibitory concentration (IC50) on GST-PTP1B (setting [1]) is 20.7 ± 3.83 µM.

On to `COc1ccccc1-c1cc(COc2ccc(/C=C/c3cccc(C(=O)O)c3)cc2)no1` [Compound 20, (E)-3-(4-((5-(2-Methoxyphenyl)isoxazol-3-yl)methoxy)styryl)benzoic acid], for which the IC50 on GST-PTP1B (read-out: IC50 PTP1B (Table 2)) is 7.66 ± 1.05 µM; on GST-TCPTP it was > 40 µM.

As to `O=C(O)c1cccc(/C=C/c2ccc(OCc3cc(-c4ccc(F)c(F)c4)on3)cc2)c1` [Compound 30, (E)-3-(4-((5-(3,4-Difluorophenyl)isoxazol-3-yl)methoxy)styryl)benzoic acid], the results for the IC50 on GST-PTP1B (read-out: IC50 PTP1B (Table 2)) and at GST-TCPTP were 1.22 ± 0.48 µM and 6.02 ± 1.13 µM, respectively. Besides, at GST-PTP1B, the “TCPTP/PTP1B, the ratio” value is 4.9.
